Measured values: ChEMBL document CHEMBL3588813, “Antifungal Amphiphilic Aminoglycosides” (Medchemcomm, 2014)
Values after ≈ are worked out from the molar mass of the structure shown.

Columns and labels:
Fusarium graminearum [1] = assay: Antimicrobial activity against Fusarium graminearum B4-5A using RPMI medium by microbroth dilution assay; type: functional
Candida albicans = assay: Antimicrobial activity against Candida albicans 10231 using potato dextrose broth as growth medium and diluent; type: functional
[2] = Cytotoxic activity against human C8161.9 cells; type: cell-based
Rhodotorula mucilaginosa = assay: Antimicrobial activity against Rhodotorula piliminae using potato dextrose broth as growth medium and diluent; type: functional
Verticillium = assay: Antimicrobial activity against Verticillium spp. using potato dextrose broth as growth medium and diluent; type: functional
Fusarium oxysporum = assay: Antimicrobial activity against Fusarium oxysporum using potato dextrose broth as growth medium and diluent; type: functional
Fusarium graminearum [3] = assay: Antimicrobial activity against Fusarium graminearum B4-5A infecrtion in wheat assessed as Fusarium head blight disease incidence at 5 ug/ml pre-treated 24 hrs before infection (reference value: 61%); type: functional
Rhizopus stolonifer = assay: Antimicrobial activity against Rhizopus stolonifer using potato dextrose broth as growth medium and diluent; type: functional
Fusarium graminearum [4] = assay: Antimicrobial activity against Fusarium graminearum B4-5A infecrtion in wheat assessed as Fusarium head blight disease incidence at 180 ug/ml pre-treated 24 hrs before infection (reference value: 61%); type: functional
[5] = Selectivity index, ratio of IC50 for mouse NIH/3T3 cells to MIC for Saccharomyces cerevisiae
Microdochium nivale = assay: Antimicrobial activity against Microdochium nivale using potato dextrose broth as growth medium and diluent; type: functional
[6] = Induction of hemolysis in sheep erythrocytes at 28 ug/ml; type: cell-based, Ovis aries, Erythrocyte; details: read-out: Activity
Fusarium graminearum [7] = assay: Antimicrobial activity against Fusarium graminearum B4-5A using potato dextrose broth as growth medium and diluent; type: functional
Fusarium graminearum [8] = assay: Antimicrobial activity against Fusarium graminearum B4-5A infection in wheat assessed as reduction in spikelet infection rate at 30 ug/ml pre-treated 24 hrs before infection; type: functional
[9] = test system: Cladosporium cladosporioides; assay: Antimicrobial activity against Cladosporium cladosporioides using potato dextrose broth as growth medium and diluent; type: functional
Globisporangium ultimum = assay: Antimicrobial activity against Pythium ultimum using potato dextrose broth as growth medium and diluent; type: functional
Ulocladium = assay: Antimicrobial activity against Ulocladium spp. using potato dextrose broth as growth medium and diluent; type: functional; details: Alternaria sect. Ulocladium
Curvularia brachyspora = assay: Antimicrobial activity against Curvularia brachyspora using potato dextrose broth as growth medium and diluent; type: functional
Fusarium graminearum [10] = assay: Antimicrobial activity against Fusarium graminearum […] in wheat assessed as reduction in Fusarium head blight disease incidence at 1080 ug/ml pre-treated 24 hrs before infection; type: functional
Phoma = assay: Antimicrobial activity against Phoma spp. using potato dextrose broth as growth medium and diluent; type: functional
Botrytis cinerea = assay: Antimicrobial activity against Botrytis cinerea using potato dextrose broth as growth medium and diluent; type: functional
[11] = Selectivity index, ratio of IC50 for human C8161.9 cells to MIC for Saccharomyces cerevisiae
Fusarium graminearum [12] = assay: Antimicrobial activity against Fusarium graminearum B4-5A infection in wheat assessed as reduction in spikelet infection rate at 5 ug/ml pre-treated 24 hrs before infection; type: functional
Fusarium graminearum [13] = assay: Antimicrobial activity against Fusarium graminearum B4-5A infecrtion in wheat assessed as Fusarium head blight disease incidence at 30 ug/ml pre-treated 24 hrs before infection (reference value: 61%); type: functional
[14] = Induction of hemolysis in sheep erythrocytes at 313 ug/ml; type: cell-based, Ovis aries, Erythrocyte; details: read-out: Activity
[15] = Cytotoxic activity against mouse NIH/3T3 cells; type: cell-based, NIH3T3
Escherichia coli = assay: Antimicrobial activity against Escherichia coli ATCC 25922 using potato dextrose broth as growth medium and diluent; type: functional
Fusarium graminearum [16] = assay: Antimicrobial activity against Fusarium graminearum B4-5A infecrtion in wheat assessed as Fusarium head blight disease incidence at 1080 ug/ml pre-treated 24 hrs before infection (reference value: 61%); type: functional
Staphylococcus aureus = assay: Antimicrobial activity against Staphylococcus aureus using potato dextrose broth as growth medium and diluent; type: functional

SMILES: CCCCCCCCO[C@H]1[C@H](N)[C@@H](O)[C@@H](O[C@@H]2[C@@H](O)[C@H](O[C@H]3O[C@H](CN)[C@@H](O)[C@H](O)[C@H]3N)[C@@H](N)C[C@H]2N)O[C@@H]1C
- MIC (Fusarium graminearum [1]): 31.5 µg/mL (≈ 54.3 µM)
- MIC (Candida albicans): 31.3 µg/mL (≈ 54 µM)
- IC50 ([2]; Homo sapiens): > 250 µg/mL
- Activity ([2]; human): Dose-dependent effect
- MIC (Rhodotorula mucilaginosa): 7.8 µg/mL (≈ 13.5 µM)
- MIC (Verticillium): 15.2 µg/mL (≈ 26.2 µM)
- MIC (Fusarium oxysporum): 7.8 µg/mL (≈ 13.5 µM)
- Activity (Fusarium graminearum [3]): 76%
- MIC (Rhizopus stolonifer): 31.3 µg/mL (≈ 54 µM)
- Activity (Fusarium graminearum [4]): 76%
- Selectivity Index [5]: 10
- MIC (Microdochium nivale): 3.9 µg/mL (≈ 6.73 µM)
- hemolysis at 28 ug/ml [6]: 2%
- MIC (Fusarium graminearum [7]): 7.8 µg/mL (≈ 13.5 µM)
- inhibition at 30 µg/mL (Fusarium graminearum [8]): 49%
- MIC [9]: 31.3 µg/mL (≈ 54 µM)
- MIC (Globisporangium ultimum): 15.6 µg/mL (≈ 26.9 µM)
- MIC (Ulocladium): 7.8 µg/mL (≈ 13.5 µM)
- MIC (Curvularia brachyspora): 31.3 µg/mL (≈ 54 µM)
- inhibition at 1080 µg/mL (Fusarium graminearum [10]): 82%
- MIC (Phoma): 31.3 µg/mL (≈ 54 µM)
- MIC (Botrytis cinerea): 31.3 µg/mL (≈ 54 µM)
- Selectivity Index [11]: 10
- inhibition at 5 µg/mL (Fusarium graminearum [12]): 29%
- Activity (Fusarium graminearum [13]): 70%
- hemolysis at 313 ug/ml [14]: > 20%
- IC50 ([15]; Mus musculus, NIH3T3): > 250 µg/mL
- Activity ([15]; mouse, nih3t3): Dose-dependent effect
- MIC (Escherichia coli): 250 µg/mL (≈ 431 µM)
- Activity (Fusarium graminearum [16]): 80%
- MIC (Staphylococcus aureus): 62.5 µg/mL (≈ 108 µM)
